This is an account of results in patent US6706728B2, “Systems and methods for treating a mucosal surface” (3M Innovative Properties Company, priority 1999, dated 2004).

A value given as a limit tells only on which side of the number the result lay.

Common to all, as to assay type: in vivo, human
Data set [1] in a line: Single dose cervical application study: systemic exposure (PK) of imiquimod in serum. The protocol: (§1) This was a single dose, randomized, double-blind, placebo controlled dose escalation study which evaluated five doses of imiquimod. 50, 100, 150, 200 and 250 mg of imiquimod in a cream formulation were applied to the cervix for eight hours. Each dose group was composed of 8 subjects (6 active and 2 placebo), with two subjects treated as dose leaders, and the remaining six subjects were treated after an acceptable response by the dose leaders. Safety was assessed by adverse events (AE's), laboratory tests, and colposcopy with photodocumentation of the cervix at pre-dose and 24 hours post-dose, and 48 hours post-dose if required. Systemic exposure (PK) was determined by measuring imiquimod and metabolites through 48 hours post-dose and the PD response was determined by serum analysis for the cytokines: tumor necrosis factor-α (TNF-α), interferon-α (IFN-α), interleukin-1 receptor […] (IL-1RA), interleukin-6 (IL-6), neopterin (NPT) and 2′5′ oligoadenlyate synthetase (2′5′ AS) during dosing and selected times during the 48 hours post-dose. Statistical tests to evaluate AE's and demographics, laboratory tests, vital signs and ECG's were Fisher's Exact, Wilcoxon Rank-Sum and Kruskall Wallis Tests respectively. Cytokine changes between dose groups were compared using Wilcoxon Rank-Sum and changes from baseline were evaluated using Spearman Rank Correlation.

Data set [2] deals with serum cytokines (TNF-α, IFN-α, IL-1RA, IL-6, NPT, 2′5′ AS). The experiment in a line: Single dose cervical application study: PD response by serum analysis for cytokines. The protocol: as §1
The next data set has as its system cervix. The experiment in a line: Single dose cervical application study: safety (adverse events, pelvic and colposcopic examination). The procedure: as §1
Setting [3] is: single doses up to 250 mg applied to the cervix for 8 hours, healthy volunteers.
[4] abbreviates: serum, 150 mg, 200 mg and 250 mg groups.

With `CC(C)Cn1cnc2c(N)nc3ccccc3c21` [imiquimod, 1-(2-methylpropyl)-1H-imidazo[4,5-c] quinolin-4-amine], in data set [1] (single dose 50-250 mg imiquimod cream (Formulation A) applied to the cervix for 8 hours, through 48 hours post-dose, quantifiable >5 ng/ml), the “serum levels of imiquimod” value was at most 5 ng/mL. Moreover, the systemic exposure entry in data set [1] (setting [3]) is given as “minimal systemic exposure”. In data set [2] (cervical application of a dose ≧150 mg), the “systemic concentration of certain cytokines” value is recorded as “increases”. For the same compound, in data set [2] (setting [4]), the “2′5′ AS change from baseline” value is on record as “Significant changes from baseline”, the “IL-1RA change from baseline” value is reported as “Significant changes from baseline” and the “NPT (neopterin) change from baseline” value is listed as “Significant changes from baseline”. Also, in data set [2] (serum, 250 mg group), the “IFN change from baseline” value was “Significant changes from baseline” and the “IL-6 change from baseline” value is on record as “Significant changes from baseline”. Moreover, in the data set on cervix (250 mg dose group), the “time to resolution of cervical reactions” value was at most 48 h. The “subjects experiencing cervical changes of minor small vesicles or smaller ulcer” value in the data set on cervix (250 mg dose group, pelvic and colposcopic examination) is listed as 2 of 6. In addition, the overall safety entry in the data set with cervix (setting [3]) is listed as “safe”.
